# Experimental data from ChEMBL document CHEMBL4627255, “Efficient synthesis of tert-butyl 3-cyano-3-cyclopropyl-2-oxopyrrolidine-4-carboxylates: Highly functionalized 2-pyrrolidinone enabling access to novel macrocyclic Tyk2 inhibitors” (Bioorg Med Chem Lett, 2020).
# Key:
# Homo sapiens [1] = organism: Homo sapiens; experiment: Selectivity index, ratio of IC50 for JAK1 (unknown origin) to IC50 for TYK2 (unknown origin)
# Homo sapiens [2] = organism: Homo sapiens; experiment: Selectivity index, ratio of IC50 for JAK2 (unknown origin) to IC50 for TYK2 (unknown origin)
# [3] = target: T1, Tyrosine-protein kinase JAK3 (Homo sapiens, UniProt P52333); experiment: Inhibition of JAK3 (unknown origin)
# T1 sequence (P52333 whole entry): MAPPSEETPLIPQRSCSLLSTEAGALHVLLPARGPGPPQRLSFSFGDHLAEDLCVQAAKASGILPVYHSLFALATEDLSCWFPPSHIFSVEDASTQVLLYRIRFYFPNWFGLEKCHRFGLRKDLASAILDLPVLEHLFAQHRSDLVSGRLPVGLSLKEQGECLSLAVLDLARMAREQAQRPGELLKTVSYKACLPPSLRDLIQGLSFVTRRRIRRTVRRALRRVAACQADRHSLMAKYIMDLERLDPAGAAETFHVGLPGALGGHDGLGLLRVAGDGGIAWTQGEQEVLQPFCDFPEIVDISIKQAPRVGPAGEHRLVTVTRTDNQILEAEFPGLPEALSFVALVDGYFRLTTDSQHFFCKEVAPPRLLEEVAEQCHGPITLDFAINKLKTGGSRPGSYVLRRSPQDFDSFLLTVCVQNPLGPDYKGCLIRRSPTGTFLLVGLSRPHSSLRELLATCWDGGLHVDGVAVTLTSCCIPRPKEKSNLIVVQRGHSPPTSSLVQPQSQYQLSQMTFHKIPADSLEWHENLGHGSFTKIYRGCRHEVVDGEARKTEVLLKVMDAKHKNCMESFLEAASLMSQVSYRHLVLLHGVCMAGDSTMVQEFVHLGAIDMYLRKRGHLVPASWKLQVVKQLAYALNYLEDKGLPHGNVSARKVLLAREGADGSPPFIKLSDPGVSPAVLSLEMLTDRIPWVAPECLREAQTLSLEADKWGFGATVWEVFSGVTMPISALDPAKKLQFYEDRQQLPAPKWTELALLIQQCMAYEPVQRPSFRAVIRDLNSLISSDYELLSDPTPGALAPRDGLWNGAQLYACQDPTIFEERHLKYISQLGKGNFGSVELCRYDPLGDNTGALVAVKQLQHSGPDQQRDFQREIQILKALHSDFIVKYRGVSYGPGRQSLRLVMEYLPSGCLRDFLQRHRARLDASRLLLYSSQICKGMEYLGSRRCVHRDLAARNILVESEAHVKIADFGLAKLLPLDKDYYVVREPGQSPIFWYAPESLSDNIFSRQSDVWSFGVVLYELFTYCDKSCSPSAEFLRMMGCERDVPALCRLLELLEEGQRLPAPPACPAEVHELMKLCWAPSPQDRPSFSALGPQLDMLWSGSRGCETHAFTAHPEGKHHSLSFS
# Homo sapiens [4] = organism: Homo sapiens; experiment: Selectivity index, ratio of IC50 for JAK3 (unknown origin) to IC50 for TYK2 (unknown origin)
# [5] = target: Tyrosine-protein kinase JAK1 (Homo sapiens, UniProt P23458); experiment: Inhibition of JAK1 (unknown origin)
# [6] = target: T2, Non-receptor tyrosine-protein kinase TYK2 (Homo sapiens, UniProt P29597); experiment: Inhibition of TYK2 (unknown origin)
# [7] = target: Tyrosine-protein kinase JAK2 (Homo sapiens, UniProt O60674); experiment: Inhibition of JAK2 (unknown origin)
# [8] = target: T2, Non-receptor tyrosine-protein kinase TYK2; experiment: Inhibition of TYK2 in human Jurkat cells by luciferase reporter gene assay; format: cell-based
# T2 sequence (P29597 whole entry): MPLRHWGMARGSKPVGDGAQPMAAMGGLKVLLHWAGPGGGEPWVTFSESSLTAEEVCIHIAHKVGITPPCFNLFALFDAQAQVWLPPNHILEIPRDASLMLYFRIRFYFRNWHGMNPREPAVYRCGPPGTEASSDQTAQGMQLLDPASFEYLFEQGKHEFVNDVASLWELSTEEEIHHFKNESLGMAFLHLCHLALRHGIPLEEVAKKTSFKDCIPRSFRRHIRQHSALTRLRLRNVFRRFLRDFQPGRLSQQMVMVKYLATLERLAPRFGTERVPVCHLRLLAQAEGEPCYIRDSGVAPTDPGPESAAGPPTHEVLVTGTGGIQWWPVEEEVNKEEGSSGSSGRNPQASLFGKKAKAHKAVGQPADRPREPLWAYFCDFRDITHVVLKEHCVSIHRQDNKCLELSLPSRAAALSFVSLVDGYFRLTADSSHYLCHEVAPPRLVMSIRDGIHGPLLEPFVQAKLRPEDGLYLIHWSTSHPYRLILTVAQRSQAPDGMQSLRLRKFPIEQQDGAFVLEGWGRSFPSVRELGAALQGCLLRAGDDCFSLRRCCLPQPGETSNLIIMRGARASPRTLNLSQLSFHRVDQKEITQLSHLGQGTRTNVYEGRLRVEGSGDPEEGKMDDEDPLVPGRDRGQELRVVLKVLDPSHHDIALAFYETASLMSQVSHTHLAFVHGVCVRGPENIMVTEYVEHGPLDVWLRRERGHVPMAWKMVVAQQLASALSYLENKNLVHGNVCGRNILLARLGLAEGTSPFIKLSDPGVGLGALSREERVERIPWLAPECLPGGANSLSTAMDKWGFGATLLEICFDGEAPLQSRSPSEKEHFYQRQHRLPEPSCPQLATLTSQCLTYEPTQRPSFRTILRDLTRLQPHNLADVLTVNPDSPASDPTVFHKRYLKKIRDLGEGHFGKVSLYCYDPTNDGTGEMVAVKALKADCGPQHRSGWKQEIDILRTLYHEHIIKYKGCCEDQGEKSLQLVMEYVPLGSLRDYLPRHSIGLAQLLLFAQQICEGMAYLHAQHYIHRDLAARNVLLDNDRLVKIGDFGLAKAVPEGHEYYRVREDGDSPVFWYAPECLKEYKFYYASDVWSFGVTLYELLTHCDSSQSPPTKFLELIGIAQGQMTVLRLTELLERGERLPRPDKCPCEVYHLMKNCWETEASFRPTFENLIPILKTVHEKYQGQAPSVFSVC
# Chain of Tyrosine-protein kinase JAK1 (P23458 whole entry): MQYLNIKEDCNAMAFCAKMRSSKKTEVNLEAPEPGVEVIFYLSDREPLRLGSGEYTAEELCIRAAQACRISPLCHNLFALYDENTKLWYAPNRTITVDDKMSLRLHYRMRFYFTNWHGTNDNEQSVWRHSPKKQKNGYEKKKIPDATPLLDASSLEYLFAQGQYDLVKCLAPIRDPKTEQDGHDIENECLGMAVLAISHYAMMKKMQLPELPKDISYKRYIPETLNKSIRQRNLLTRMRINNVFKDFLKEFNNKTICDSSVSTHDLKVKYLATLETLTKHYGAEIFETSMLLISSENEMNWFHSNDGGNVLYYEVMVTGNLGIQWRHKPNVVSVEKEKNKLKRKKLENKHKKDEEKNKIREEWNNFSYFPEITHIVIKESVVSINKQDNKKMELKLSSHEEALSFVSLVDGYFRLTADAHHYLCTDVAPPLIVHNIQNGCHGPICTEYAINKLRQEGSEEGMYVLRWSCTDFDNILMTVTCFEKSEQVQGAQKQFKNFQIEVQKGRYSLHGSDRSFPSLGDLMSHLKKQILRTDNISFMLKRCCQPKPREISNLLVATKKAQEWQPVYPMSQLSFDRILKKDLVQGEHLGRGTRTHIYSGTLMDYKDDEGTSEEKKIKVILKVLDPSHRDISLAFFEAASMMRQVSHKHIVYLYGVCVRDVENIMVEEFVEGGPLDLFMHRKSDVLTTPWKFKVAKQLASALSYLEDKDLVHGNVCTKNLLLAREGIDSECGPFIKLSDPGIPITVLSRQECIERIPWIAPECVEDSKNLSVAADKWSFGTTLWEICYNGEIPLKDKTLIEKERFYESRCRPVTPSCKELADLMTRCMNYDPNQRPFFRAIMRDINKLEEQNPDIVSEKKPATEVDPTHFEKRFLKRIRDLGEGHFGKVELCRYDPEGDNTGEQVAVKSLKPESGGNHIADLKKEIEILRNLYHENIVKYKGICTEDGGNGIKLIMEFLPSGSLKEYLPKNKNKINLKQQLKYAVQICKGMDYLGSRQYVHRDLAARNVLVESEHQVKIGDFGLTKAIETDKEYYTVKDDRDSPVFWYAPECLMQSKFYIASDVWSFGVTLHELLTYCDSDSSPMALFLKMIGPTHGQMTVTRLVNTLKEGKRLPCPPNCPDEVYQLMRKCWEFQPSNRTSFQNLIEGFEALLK
# Chain of Tyrosine-protein kinase JAK2 (O60674 whole entry): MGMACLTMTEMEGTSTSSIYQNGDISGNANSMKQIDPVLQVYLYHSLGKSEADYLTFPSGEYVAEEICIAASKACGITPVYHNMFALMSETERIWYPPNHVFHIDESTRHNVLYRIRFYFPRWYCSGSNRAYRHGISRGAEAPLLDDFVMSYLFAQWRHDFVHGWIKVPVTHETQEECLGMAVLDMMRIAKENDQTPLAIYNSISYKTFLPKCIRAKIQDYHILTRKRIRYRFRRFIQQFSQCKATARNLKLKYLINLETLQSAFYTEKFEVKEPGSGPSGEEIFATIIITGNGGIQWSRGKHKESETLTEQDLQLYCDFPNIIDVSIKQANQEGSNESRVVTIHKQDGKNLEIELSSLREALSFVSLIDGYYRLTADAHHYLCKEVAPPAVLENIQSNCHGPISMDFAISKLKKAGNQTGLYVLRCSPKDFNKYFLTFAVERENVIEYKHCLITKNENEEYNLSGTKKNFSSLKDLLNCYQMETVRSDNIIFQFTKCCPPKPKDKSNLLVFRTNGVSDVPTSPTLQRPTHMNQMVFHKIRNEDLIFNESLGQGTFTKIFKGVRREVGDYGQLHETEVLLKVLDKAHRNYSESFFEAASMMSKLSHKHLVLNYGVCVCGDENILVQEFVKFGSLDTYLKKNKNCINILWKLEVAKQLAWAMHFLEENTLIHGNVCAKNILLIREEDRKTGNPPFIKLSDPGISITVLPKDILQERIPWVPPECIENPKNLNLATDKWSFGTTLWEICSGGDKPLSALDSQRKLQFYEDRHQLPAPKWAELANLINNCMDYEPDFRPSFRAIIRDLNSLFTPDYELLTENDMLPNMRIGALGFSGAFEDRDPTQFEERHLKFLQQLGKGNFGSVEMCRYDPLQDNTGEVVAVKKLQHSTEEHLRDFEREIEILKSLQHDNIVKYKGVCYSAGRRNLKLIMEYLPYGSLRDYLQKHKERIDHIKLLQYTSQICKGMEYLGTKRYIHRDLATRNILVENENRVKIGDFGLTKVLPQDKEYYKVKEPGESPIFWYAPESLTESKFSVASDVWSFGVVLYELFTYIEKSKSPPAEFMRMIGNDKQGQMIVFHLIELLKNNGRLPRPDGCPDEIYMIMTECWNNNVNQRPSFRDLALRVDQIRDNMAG
SMILES,Ratio IC50 (Homo sapiens [1]),Ratio IC50 (Homo sapiens [2]),IC50 [3] [nM],Ratio IC50 (Homo sapiens [4]),IC50 [5] [nM],IC50 [6] [nM],IC50 [7] [nM],IC50 [8] [nM]
N#C[C@]1(C2CC2)C(=O)N2C[C@H]1COCC(=O)NCCCc1cccc(n1)Nc1cc2ccn1,24,18,43,7.8,130,5.5,100,180
N#C[C@]1(C2CC2)C(=O)N2C[C@H]1COCCCCOCc1cccc(n1)Nc1cc2ccn1,140,27,400,82,710,4.9,130,210
N#C[C@]1(C2CC2)C(=O)N2C[C@H]1COCC(=O)NCc1cccc(n1)Nc1cc2ccn1,23,7.7,1900,15,3000,130,1000,1300
N#C[C@]1(C2CC2)C(=O)N2C[C@H]1COC/C=C/COCc1cccc(n1)Nc1cc2ccn1,30,12,180,15,360,12,140,440
N#C[C@]1(C2CC2)C(=O)N2C[C@H]1COCC(=O)NCCc1cccc(n1)Nc1cc2ccn1,40,7.8,130,5.7,910,23,180,210
N#C[C@]1(C2CC2)C(=O)N2C[C@H]1COC/C=C\COCc1cccc(n1)Nc1cc2ccn1,110,25,270,52,580,5.2,130,260
CN(C)C(=O)c1ccc(Nc2cc(N3CC[C@@](C#N)(C4CC4)C3=O)ccn2)nc1,,,,,,1.1,,
